In the NIST ThermoML archive (doi:10.1021/je101035p):
Numbers after ± are expanded uncertainties.

How the values were obtained:
[1] = Liquid; for Normal boiling temperature: Distillation
[2] = refractive index (Na D-line) (dimensionless); details: 101.33 kPa, Liquid, Standard Abbe refractometry

Normal boiling temperature [1] [°C]	refractive index ([2]; 293.2 K)	mass density ([1]; 293.2 K, 101.33 kPa, Vibrating tube method) [kg/m3]	refractive index ([2]; 294 K)	Structure (SMILES)
78.29 ± 1.1	1.36115 ± 0.0007	–	–	CCO [ethanol]
220.00 ± 1.2	–	895.06 ± 4.4	1.45445 ± 0.0012	C=CC(C)(CCC=C(C)C)OC(C)=O (stereo not given) [linalool acetate]
